According to patent US11174268B2, “Benzenesulfonamide compouds and their use as therapeutic agents” (Xenon Pharmaceuticals Inc., priority 2016, dated 2021):
Where a name gives a salt, the structure may show the parent alone. Read-outs that look alike come from different tables or passages of the source.

How the values were obtained:
NaV1.5 = NaV1.5 (Homo sapiens (Human), UniProt Q14524); test: Sodium Influx Assay (Flux), NaV1.5
NaV1.6 = NaV1.6 (Homo sapiens (Human), UniProt Q9UQD0); test: Sodium Influx Assay (Flux), NaV1.6; assay type: cell-based; conditions: Trex HEK293 cells, ANG2 dye, inactivated state;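 also: Tetracycline-induced cells, compounds applied for one hour at room temperature with modulators holding channels open, IC50 from percent inhibition of sodium influx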
NaV1.1 = NaV1.1 (Homo sapiens (Human), UniProt P35498); test: Sodium Influx Assay (Flux), NaV1.1; assay type: cell-based; conditions: Trex HEK293 cells, ANG2 dye, inactivated state;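 also: channels co-expressed with human β1 subunit and held open by modulators, cells exposed to compounds for one hour at room temperature, IC50 from percent inhibition of influx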
[1] = read-out: Flux NaV1.5 IC50, Trex HEK293 cells, ANG2 dye, inactivated state

Sequence of NaV1.5 (Q14524 other isoform, or with tags, fused parts or gaps): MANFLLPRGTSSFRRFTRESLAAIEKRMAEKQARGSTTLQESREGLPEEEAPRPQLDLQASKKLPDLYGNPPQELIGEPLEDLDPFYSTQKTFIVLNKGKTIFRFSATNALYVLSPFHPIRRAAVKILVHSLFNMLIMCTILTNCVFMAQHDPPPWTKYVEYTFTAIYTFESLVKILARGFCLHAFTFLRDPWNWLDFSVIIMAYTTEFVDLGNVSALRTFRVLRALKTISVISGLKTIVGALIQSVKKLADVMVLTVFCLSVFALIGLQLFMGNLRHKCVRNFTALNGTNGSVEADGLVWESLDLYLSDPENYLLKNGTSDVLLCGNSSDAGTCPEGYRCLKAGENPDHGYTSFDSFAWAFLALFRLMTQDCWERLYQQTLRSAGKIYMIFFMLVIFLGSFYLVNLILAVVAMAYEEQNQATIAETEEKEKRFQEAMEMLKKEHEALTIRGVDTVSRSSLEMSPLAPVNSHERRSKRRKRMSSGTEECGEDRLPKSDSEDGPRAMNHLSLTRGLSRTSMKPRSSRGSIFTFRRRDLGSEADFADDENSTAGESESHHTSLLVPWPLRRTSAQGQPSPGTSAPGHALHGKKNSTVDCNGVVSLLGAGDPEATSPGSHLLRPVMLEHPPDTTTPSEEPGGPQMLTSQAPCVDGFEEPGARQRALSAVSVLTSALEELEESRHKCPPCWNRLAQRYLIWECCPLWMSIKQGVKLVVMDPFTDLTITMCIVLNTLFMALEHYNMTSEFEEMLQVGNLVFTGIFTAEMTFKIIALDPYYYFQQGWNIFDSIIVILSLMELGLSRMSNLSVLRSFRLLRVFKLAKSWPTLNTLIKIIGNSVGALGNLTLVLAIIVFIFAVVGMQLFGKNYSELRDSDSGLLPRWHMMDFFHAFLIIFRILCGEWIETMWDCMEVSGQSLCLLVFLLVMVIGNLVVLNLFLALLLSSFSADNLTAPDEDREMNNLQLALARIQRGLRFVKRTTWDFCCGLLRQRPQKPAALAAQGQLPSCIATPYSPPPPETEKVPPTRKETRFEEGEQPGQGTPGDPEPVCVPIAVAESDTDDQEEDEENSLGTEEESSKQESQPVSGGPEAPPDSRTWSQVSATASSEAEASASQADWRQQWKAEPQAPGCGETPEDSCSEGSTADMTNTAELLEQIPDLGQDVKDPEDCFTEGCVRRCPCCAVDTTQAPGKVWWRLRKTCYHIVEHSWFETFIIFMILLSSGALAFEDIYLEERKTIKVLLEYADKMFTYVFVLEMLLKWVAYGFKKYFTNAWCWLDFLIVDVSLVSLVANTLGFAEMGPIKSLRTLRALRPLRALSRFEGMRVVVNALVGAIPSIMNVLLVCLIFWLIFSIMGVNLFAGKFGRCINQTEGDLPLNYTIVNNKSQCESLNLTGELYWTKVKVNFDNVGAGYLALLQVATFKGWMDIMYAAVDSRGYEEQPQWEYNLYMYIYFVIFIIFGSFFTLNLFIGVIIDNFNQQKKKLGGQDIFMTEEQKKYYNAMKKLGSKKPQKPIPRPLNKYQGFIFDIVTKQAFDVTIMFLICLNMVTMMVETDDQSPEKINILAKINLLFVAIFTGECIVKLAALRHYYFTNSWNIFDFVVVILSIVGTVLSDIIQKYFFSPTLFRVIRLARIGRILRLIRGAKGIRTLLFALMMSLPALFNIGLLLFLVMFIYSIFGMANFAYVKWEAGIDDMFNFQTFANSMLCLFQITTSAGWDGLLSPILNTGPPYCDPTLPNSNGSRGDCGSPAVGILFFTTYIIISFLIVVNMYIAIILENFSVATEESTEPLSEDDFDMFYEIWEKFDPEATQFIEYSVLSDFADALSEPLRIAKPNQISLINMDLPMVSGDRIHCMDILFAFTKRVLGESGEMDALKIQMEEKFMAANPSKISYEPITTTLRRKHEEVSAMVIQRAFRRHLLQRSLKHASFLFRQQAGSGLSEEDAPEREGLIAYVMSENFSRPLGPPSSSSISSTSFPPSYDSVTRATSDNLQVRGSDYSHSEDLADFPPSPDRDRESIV

SMILES	IC50 (NaV1.6) [µM]	IC50 (NaV1.1) [µM]	IC50 (NaV1.5; [1]) [µM]	IC50 (NaV1.5) [µM]
CN(Cc1cccc(F)c1CNc1cc(F)c(S(=O)(=O)Nc2cscn2)c(F)c1)C1COC1 [Example 181, 2,6-difluoro-4-((2-fluoro-6-((methyl(oxetan-3-yl)amino)methyl)benzyl)amino)-N-(thiazol-4-yl)benzenesulfonamide formate]	2.96	10.6	30	–
O=S(=O)(Nc1cscn1)c1cc(Cl)c(NCc2c(F)cccc2CN2CC3(CCC3)C2)cc1F [Example 128, 4-((2-((2-azaspiro[3.3]heptan-2-yl)methyl)-6-fluorobenzyl)amino)-5-chloro-2-fluoro-N-(thiazol-4-yl)benzenesulfonamide]	0.208	5.37	–	6.72
O=S(=O)(Nc1cnsc1)c1c(F)cc(NCc2c(F)cccc2CN2CCC2)cc1F [Example 318, 4-((2-(azetidin-1-ylmethyl)-6-fluorobenzyl)amino)-2,6-difluoro-N-(isothiazol-4-yl)benzenesulfonamide]	6.03	20.4	17.3	–
O=S(=O)(Nc1cscn1)c1c(F)cc(NCc2c(F)cccc2CN2CC3(CCC3)C2)cc1F [Example 252, 4-((2-((2-azaspiro[3.3]heptan-2-yl)methyl)-6-fluorobenzyl)amino)-2,6-difluoro-N-(thiazol-4-yl)benzenesulfonamide formate]	0.036	9.96	12.6	–
O=S(=O)(Nc1cscn1)c1cc(Cl)c(NCc2c(F)ccc(F)c2CN2CC3(CCOCC3)C2)cc1F [Example 282, 4-((2-((7-oxa-2-azaspiro[3.5]nonan-2-yl)methyl)-3,6-difluorobenzyl)amino)-5-chloro-2-fluoro-N-(thiazol-4-yl)benzenesulfonamide 2,2,2-trifluoroacetate]	0.409	9.78	6.58	–
O=S(=O)(Nc1cscn1)c1cc(Cl)c(OC2(c3ccccc3)CC2)cc1F [Example 221, 5-chloro-2-fluoro-4-(1-phenylcyclopropoxy)-N-(thiazol-4-yl)benzenesulfonamide]	4.66	25.4	19	–
O=S(=O)(Nc1cscn1)c1c(F)cc(NCc2c(F)cccc2CN2CC3(CC3)C2)cc1F [Example 186, 4-((2-((5-azaspiro[2.3]hexan-5-yl)methyl)-6-fluorobenzyl)amino)-2,6-difluoro-N-(thiazol-4-yl)benzenesulfonamide formate]	0.019	15.5	9.12	–
Cc1cc(NCc2c(F)cccc2CN2CC(C)(C)C2)c(F)c(F)c1S(=O)(=O)Nc1cscn1 [Example 314, 4-((2-((3,3-dimethylazetidin-1-yl)methyl)-6-fluorobenzyl)amino)-2,3-difluoro-6-methyl-N-(thiazol-4-yl)benzenesulfonamide 2,2,2-trifluoroacetate]	0.032	30	30	–
CC(C)N(C)Cc1cccc(F)c1CNc1cc(F)c(S(=O)(=O)Nc2ccon2)c(F)c1 [Example 201, 2,6-difluoro-4-((2-fluoro-6-((isopropyl(methyl)amino)methyl)benzyl)amino)-N-(isoxazol-3-yl)benzenesulfonamide 2,2,2-trifluoroacetate]	0.561	30	30	–
COC[C@H]1CCCN1Cc1cccc(F)c1CNc1cc(F)c(S(=O)(=O)Nc2cscn2)c(F)c1 [Example 154, (R)-2,6-difluoro-4-((2-fluoro-6-((2-(methoxymethyl)pyrrolidin-1-yl)methyl)benzyl)amino)-N-(thiazol-4-yl)benzenesulfonamide formate]	0.451	28.8	30	–
CC[C@H](Nc1cc(F)c(S(=O)(=O)Nc2ccncn2)c(F)c1)c1cc(F)ccc1Cl [Example 276, (S)-4-((1-(2-chloro-5-fluorophenyl)propyl)amino)-2,6-difluoro-N-(pyrimidin-4-yl)benzenesulfonamide]	0.265	3.6	24.3	–

More lines, in order of falling IC50 (NaV1.6), values ahead:

IC50 (NaV1.6) [µM]	IC50 (NaV1.1) [µM]	SMILES	IC50 (NaV1.5; [1]) [µM]	IC50 (NaV1.5) [µM]
30	30	O=S(=O)(Nc1cscn1)c1cc(Cl)c(N[C@H]2C[C@H](N3CCC3)c3ccccc32)cc1F [Example 264, 4-(((1S,3S)-3-(azetidin-1-yl)-2,3-dihydro-1H-inden-1-yl)amino)-5-chloro-2-fluoro-N-(thiazol-4-yl)benzenesulfonamide formate]	30	–
14.5	21.1	C[C@H](Oc1cc(F)c(S(=O)(=O)Nc2nccs2)cc1Cl)c1ccc(Cl)c(Cl)c1 [Example 108, (S)-5-chloro-4-(1-(3,4-dichlorophenyl)ethoxy)-2-fluoro-N-(thiazol-2-yl)benzenesulfonamide]	22.4	–
3.54	12.5	C[C@H](Nc1cc(F)c(S(=O)(=O)Nc2cscn2)cc1Cl)c1cc(OCC2(C)COC2)ccc1F [Example 237, (S)-5-chloro-2-fluoro-4-((1-(2-fluoro-5-((3-methyloxetan-3-yl)methoxy)phenyl)ethyl)amino)-N-(thiazol-4-yl)benzenesulfonamide]	30	–
2.32	3.38	C[C@@H](Oc1cc(F)c(S(=O)(=O)Nc2nccs2)cc1Cl)c1ccccc1F [Example 121, (R)-5-chloro-2-fluoro-4-(1-(2-fluorophenyl)ethoxy)-N-(thiazol-2-yl)benzenesulfonamide]	2.15	–
1.84	15.9	C[C@H](Oc1cc(F)c(S(=O)(=O)Nc2cscn2)cc1Cl)c1cc(Cl)ccc1F [Example 124, (S)-5-chloro-4-(1-(5-chloro-2-fluorophenyl)ethoxy)-2-fluoro-N-(thiazol-4-yl)benzenesulfonamide]	1.87	–
1.37	30	CN(Cc1c(F)ccc(F)c1CN1CCC1)c1cc(F)c(S(=O)(=O)Nc2cscn2)c(F)c1 [Example 284, 4-((2-(azetidin-1-ylmethyl)-3,6-difluorobenzyl)(methyl)amino)-2,6-difluoro-N-(thiazol-4-yl)benzenesulfonamide 2,2,2-trifluoroacetate]	30	–
1.37	29.2	O=S(=O)(Nc1ccon1)c1c(F)cc(NCc2ccccc2CN2CCC2)cc1F [Example 259, 4-((2-(azetidin-1-ylmethyl)benzyl)amino)-2,6-difluoro-N-(isoxazol-3-yl)benzenesulfonamide]	30	–
1.25	2.95	C[C@H](Nc1ccc(S(=O)(=O)Nc2cscn2)c(F)c1Cl)c1c(F)cccc1Cl [Example 148, (S)-3-chloro-4-((1-(2-chloro-6-fluorophenyl)ethyl)amino)-2-fluoro-N-(thiazol-4-yl)benzenesulfonamide]	4.84	–
0.741	0.726	C[C@H](Nc1cc(F)c(S(=O)(=O)Nc2nccs2)cc1Cl)c1ccc(F)c(F)c1 [Example 53, (S)-5-chloro-4-((1-(3,4-difluorophenyl)ethyl)amino)-2-fluoro-N-(thiazol-2-yl)benzenesulfonamide]	6.89	–
0.688	27.2	O=S(=O)(Nc1cscn1)c1c(F)cc(NCc2cc(CN3CCC3)ccc2F)cc1F [Example 195, 4-((5-(azetidin-1-ylmethyl)-2-fluorobenzyl)amino)-2,6-difluoro-N-(thiazol-4-yl)benzenesulfonamide formate]	30	–
0.368	14	O=S(=O)(Nc1cscn1)c1cc(Cl)c(NCc2c(Cl)cccc2CN2CC3(CNC3)C2)cc1F [Example 291, 4-((2-((2,6-diazaspiro[3.3]heptan-2-yl)methyl)-6-chlorobenzyl)amino)-5-chloro-2-fluoro-N-(thiazol-4-yl)benzenesulfonamide 2,2,2-trifluoroacetate]	30	–
0.28	30	Cc1cc(S(=O)(=O)Nc2ccon2)c(F)cc1NCc1c(F)cccc1CN1CCC1 [Example 219, 4-((2-(azetidin-1-ylmethyl)-6-fluorobenzyl)amino)-2-fluoro-N-(isoxazol-3-yl)-5-methylbenzenesulfonamide]	30	–
0.265	13.4	CC(C)(C)NCc1cccc(F)c1CNc1cc(F)c(S(=O)(=O)Nc2cscn2)c(F)c1 [Example 178, 4-((2-((tert-butylamino)methyl)-6-fluorobenzyl)amino)-2,6-difluoro-N-(thiazol-4-yl)benzenesulfonamide formate]	30	–
0.213	4.08	CC1(C)CCN1Cc1cccc(Cl)c1CNc1cc(F)c(S(=O)(=O)Nc2cscn2)c(F)c1 [Example 199, 4-((2-chloro-6-((2,2-dimethylazetidin-1-yl)methyl)benzyl)amino)-2,6-difluoro-N-(thiazol-4-yl)benzenesulfonamide formate]	30	–
0.193	2.12	O=S(=O)(Nc1nccs1)c1cc(Cl)c(NC2(c3ccccc3F)CC2)cc1F [Example 220, 5-chloro-2-fluoro-4-((1-(2-fluorophenyl)cyclopropyl)amino)-N-(thiazol-2-yl)benzenesulfonamide]	3.17	–
0.166	22.1	CC1(F)CN(Cc2cccc(F)c2CNc2cc(F)c(S(=O)(=O)Nc3cscn3)c(F)c2)C1 [Example 180, 2,6-difluoro-4-((2-fluoro-6-((3-fluoro-3-methylazetidin-1-yl)methyl)benzyl)amino)-N-(thiazol-4-yl)benzenesulfonamide formate]	24.2	–
0.135	7.26	Cc1cc(NCc2ccccc2CN2CCC2)c(F)c(F)c1S(=O)(=O)Nc1cscn1 [Example 312, 4-((2-(azetidin-1-ylmethyl)benzyl)amino)-2,3-difluoro-6-methyl-N-(thiazol-4-yl)benzenesulfonamide 2,2,2-trifluoroacetate]	9.59	–
